Measurements as given in the NIST ThermoML archive (doi:10.1016/j.jct.2015.12.025).
Numbers after ± are expanded uncertainties.

Legend:
[1] = xn = mol fraction of the nth substance listed; settings: 102 kPa, Liquid, Vibrating tube method
[2] = refractive index (Na D-line) (dimensionless); xn = mol fraction of the nth substance listed; settings: 102 kPa, Liquid, Standard Abbe refractometry

C[Si]1(CCC(F)(F)F)O[Si](C)(CCC(F)(F)F)O[Si](C)(CCC(F)(F)F)O1 (stereo not given) + CCc1ccccc1
Settings	mass density, 308.15 K [kg/m3]	mass density, 313.15 K [kg/m3]	mass density, 318.15 K [kg/m3]	mass density, 323.15 K [kg/m3]	refractive index, 308.15 K	refractive index, 313.15 K	refractive index, 318.15 K	refractive index, 323.15 K
[1], x1 = 0.05	905.01 ± 1	900.4 ± 1	895.69 ± 1	890.85 ± 1	–	–	–	–
[1], x1 = 0.1	947.97 ± 1	943.16 ± 1	938.39 ± 1	933.5 ± 1	–	–	–	–
[1], x1 = 0.15	984.47 ± 1	979.55 ± 1	974.46 ± 1	969.52 ± 1	–	–	–	–
[1], x1 = 0.1967	1013.95 ± 1	1008.92 ± 1	1003.57 ± 1	998.43 ± 1	–	–	–	–
[1], x1 = 0.25	1043.11 ± 1	1037.94 ± 1	1032.55 ± 1	1027.19 ± 1	–	–	–	–
[1], x1 = 0.2998	1066.87 ± 1	1061.66 ± 1	1056.21 ± 1	1050.74 ± 1	–	–	–	–
[1], x1 = 0.35	1088.17 ± 1	1082.82 ± 1	1077.22 ± 1	1071.74 ± 1	–	–	–	–
[1], x1 = 0.377	1098.7 ± 1	1093.23 ± 1	1087.75 ± 1	1082.06 ± 1	–	–	–	–
[1], x1 = 0.4437	1121.97 ± 1	1116.36 ± 1	1110.93 ± 1	1104.98 ± 1	–	–	–	–
[1], x1 = 0.5001	1139.32 ± 1	1133.58 ± 1	1127.97 ± 1	1121.88 ± 1	–	–	–	–
[1], x1 = 0.5492	1152.93 ± 1	1147.02 ± 1	1141.17 ± 1	1135.21 ± 1	–	–	–	–
[1], x1 = 0.5994	1165.69 ± 1	1159.63 ± 1	1153.7 ± 1	1147.6 ± 1	–	–	–	–
[1], x1 = 0.6499	1177.11 ± 1	1171.2 ± 1	1165.14 ± 1	1158.94 ± 1	–	–	–	–
[1], x1 = 0.6997	1187.73 ± 1	1181.59 ± 1	1175.49 ± 1	1169.24 ± 1	–	–	–	–
[1], x1 = 0.7502	1197.39 ± 1	1191.42 ± 1	1185.03 ± 1	1178.51 ± 1	–	–	–	–
[1], x1 = 0.7999	1206.57 ± 1	1200.31 ± 1	1193.75 ± 1	1187.44 ± 1	–	–	–	–
[1], x1 = 0.8498	1214.84 ± 1	1208.54 ± 1	1202.09 ± 1	1195.57 ± 1	–	–	–	–
[1], x1 = 0.9002	1222.62 ± 1	1216.17 ± 1	1209.67 ± 1	1203.21 ± 1	–	–	–	–
[1], x1 = 0.9498	1229.79 ± 1	1223.31 ± 1	1216.79 ± 1	1210.24 ± 1	–	–	–	–
[1], x1 = 1	1236.63 ± 1	1230.05 ± 1	1223.55 ± 1	1216.99 ± 1	–	–	–	–
[2], x1 = 0.05	–	–	–	–	1.46829 ± 0.00035	1.46563 ± 0.00035	1.46295 ± 0.00035	1.46034 ± 0.00035
[2], x1 = 0.1	–	–	–	–	1.4527 ± 0.00035	1.45013 ± 0.00035	1.44755 ± 0.00035	1.445 ± 0.00035
[2], x1 = 0.15	–	–	–	–	1.43984 ± 0.00035	1.43731 ± 0.00035	1.43479 ± 0.00035	1.43233 ± 0.00035
[2], x1 = 0.1967	–	–	–	–	1.42972 ± 0.00035	1.42722 ± 0.00035	1.42478 ± 0.00035	1.42233 ± 0.00035
[2], x1 = 0.25	–	–	–	–	1.41987 ± 0.00035	1.41742 ± 0.00035	1.41503 ± 0.00035	1.41266 ± 0.00035
[2], x1 = 0.2998	–	–	–	–	1.41202 ± 0.00035	1.40962 ± 0.00035	1.40725 ± 0.00035	1.40493 ± 0.00035
[2], x1 = 0.35	–	–	–	–	1.40515 ± 0.00035	1.40278 ± 0.00035	1.40047 ± 0.00035	1.39817 ± 0.00035
[2], x1 = 0.377	–	–	–	–	1.40179 ± 0.00035	1.39946 ± 0.00035	1.39713 ± 0.00035	1.39485 ± 0.00035
[2], x1 = 0.4437	–	–	–	–	1.39447 ± 0.00035	1.39219 ± 0.00035	1.38991 ± 0.00035	1.38768 ± 0.00035
[2], x1 = 0.5001	–	–	–	–	1.38911 ± 0.00035	1.38686 ± 0.00035	1.38464 ± 0.00035	1.38243 ± 0.00035
[2], x1 = 0.5492	–	–	–	–	1.38496 ± 0.00035	1.38275 ± 0.00035	1.38053 ± 0.00035	1.37836 ± 0.00035
[2], x1 = 0.5994	–	–	–	–	1.3811 ± 0.00035	1.37891 ± 0.00035	1.37672 ± 0.00035	1.37458 ± 0.00035
[2], x1 = 0.6499	–	–	–	–	1.3776 ± 0.00035	1.37545 ± 0.00035	1.37326 ± 0.00035	1.37112 ± 0.00035
[2], x1 = 0.6997	–	–	–	–	1.37445 ± 0.00035	1.37234 ± 0.00035	1.37017 ± 0.00035	1.36807 ± 0.00035
[2], x1 = 0.7502	–	–	–	–	1.37152 ± 0.00035	1.36941 ± 0.00035	1.36729 ± 0.00035	1.36521 ± 0.00035
[2], x1 = 0.7999	–	–	–	–	1.36888 ± 0.00035	1.36677 ± 0.00035	1.36471 ± 0.00035	1.36262 ± 0.00035
[2], x1 = 0.8498	–	–	–	–	1.36642 ± 0.00035	1.36437 ± 0.00035	1.36228 ± 0.00035	1.36025 ± 0.00035
[2], x1 = 0.9002	–	–	–	–	1.36413 ± 0.00035	1.3621 ± 0.00035	1.36007 ± 0.00035	1.35801 ± 0.00035
[2], x1 = 0.9498	–	–	–	–	1.36206 ± 0.00035	1.36004 ± 0.00035	1.35799 ± 0.00035	1.356 ± 0.00035
[2], x1 = 1	–	–	–	–	1.36011 ± 0.00035	1.35808 ± 0.00035	1.35608 ± 0.00035	1.35407 ± 0.00035
